Values of other authors, collected in patent US8173626B2, “Methods, dosing regimens and medications using anti-progestational agents for the treatment of disorders” (Danco Laboratories LLC, priority 2006, dated 2012).
Like-named read-outs stand apart in the source and are kept apart here.

Assays:
glucocorticoid receptors = target: T1, glucocorticoid receptors (Homo sapiens, UniProt P04150); details: cited from earlier work
T1 sequence (P04150 1-777): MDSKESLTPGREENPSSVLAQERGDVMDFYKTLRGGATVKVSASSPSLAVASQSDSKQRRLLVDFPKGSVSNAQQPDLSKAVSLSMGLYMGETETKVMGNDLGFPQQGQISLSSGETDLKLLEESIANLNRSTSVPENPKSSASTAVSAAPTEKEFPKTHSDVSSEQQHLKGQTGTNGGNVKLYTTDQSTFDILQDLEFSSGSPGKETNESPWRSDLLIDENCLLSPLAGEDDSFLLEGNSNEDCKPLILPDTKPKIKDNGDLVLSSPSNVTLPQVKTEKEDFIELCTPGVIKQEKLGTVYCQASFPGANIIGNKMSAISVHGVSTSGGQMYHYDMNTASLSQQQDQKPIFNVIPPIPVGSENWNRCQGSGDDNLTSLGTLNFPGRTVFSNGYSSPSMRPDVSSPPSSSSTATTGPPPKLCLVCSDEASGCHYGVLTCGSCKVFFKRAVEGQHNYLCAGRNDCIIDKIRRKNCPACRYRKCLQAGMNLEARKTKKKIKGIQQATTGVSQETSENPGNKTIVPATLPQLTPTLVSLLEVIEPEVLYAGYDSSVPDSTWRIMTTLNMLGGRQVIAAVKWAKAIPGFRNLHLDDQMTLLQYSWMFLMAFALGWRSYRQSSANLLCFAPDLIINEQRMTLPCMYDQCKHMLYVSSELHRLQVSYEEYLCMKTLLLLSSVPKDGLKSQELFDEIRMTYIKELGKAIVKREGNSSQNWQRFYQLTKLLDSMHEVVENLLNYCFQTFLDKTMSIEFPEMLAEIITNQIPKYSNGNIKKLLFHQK

breakthrough bleeding = details: cited from earlier work; for subjects with irregular or prolonged bleeding: Newton et al.; for days of vaginal bleeding: Tyler et al.

## CC(=O)c1ccc([C@H]2C[C@@]3(C)[C@@H](CC[C@@]3(O)C(F)(F)C(F)(F)F)[C@@H]3CCC4=CC(=O)CCC4=C32)cc1 [ZK230211]
Glucocorticoid receptors
  activity against glucocorticoid receptors: substantially inactive

## CC(=O)O[C@]1(C(C)=O)CC[C@H]2[C@@H]3C[C@H](C)C4=CC(=O)CC[C@]4(C)[C@H]3CC[C@@]21C [DMPA, depo-medroxyprogesterone acetate]
Breakthrough bleeding; 9-12th month of use
  subjects with irregular or prolonged bleeding: 34%
Breakthrough bleeding; between the first and second injection
  days of vaginal bleeding: around 30 % of days
Breakthrough bleeding; between the second and third injection
  days of vaginal bleeding: ~20 % of days
Breakthrough bleeding; first 3 months of DMPA
  subjects with irregular or prolonged bleeding: 90%
Breakthrough bleeding; first year of use, Toppozada et al.
  discontinuation rate due to breakthrough bleeding: ≤ 40%

## C[C@H]1CC2=CC(=O)CCC2=C2[C@@H]1[C@@H]1CC[C@@]3(CCCO3)[C@@]1(C)C[C@@H]2c1ccc(N(C)C)cc1 [Org 31806, (7β,11β,17β)-11-(4-NMe2-phenyl)-7-Me-4′,5′-dihydrospiro(oestra-4,9-diene-17,2′(3′H)-furan)-3-one]
Glucocorticoid receptors
  activity against glucocorticoid receptors: substantially inactive

## (11β,17α)-(4-acetylphenyl)-17,23-epoxy-19,24-dinorchola-4,9,20-trien-3-one [Org 33628]
Glucocorticoid receptors
  activity against glucocorticoid receptors: substantially inactive

## C[C@@H]1C[C@@H]2C(=C3CCC(=O)C=C31)[C@@H](c1ccc(N(C)C)cc1)C[C@@]1(C)[C@H]2CC[C@@]12CCCO2 [Org 31710, (6α,11β,17β)-11-(4-NMe2-phenyl)-6-Me-4′,5′-dihydrospiro[oestra-4,9-diene-17,2(3′H)-furan]-3-one]
Glucocorticoid receptors
  activity against glucocorticoid receptors: substantially inactive
